Source: patent publication US7691969B2, “Isolated GRP94 ligand binding domain polypeptide and nucleic acid encoding same, crystalline form of same, and screening methods employing same” (Duke University, priority 2001, dated 2010)

Assays:
GRP94 [1] = biological target: T1, GRP94 (Sus scrofa, UniProt Q29092); experiment: Fluorophore binding to native and heat shocked GRP94 (fluorescence emission); set-up: species or system porcine
T1 construct: GRP94 was purified from porcine pancreas rough microsomes; from tissue; host or cells: porcine pancreas rough microsomes (lumenal contents)
Excerpt: Fluorophore Binding Reactions.
Fluorescence Measurements. […] All spectra were background corrected.
To characterize the structural basis for the heat shock dependent activation of GRP94 activity, the interaction of polarity-sensitive fluorophores with native and heat shocked GRP94 was examined. The three probes tested, Prodan (6-propionyl-2-(dimethylamino)naphthalene), 8-ANS (1,8-anilinonaphthalenesulfonate) and bis-ANS (bis(1,8-anilino-naphthalenesulfonate) are structurally related probes that bind to hydrophobic sites on proteins and undergo substantial fluorescence spectrum changes upon introduction into nonpolar environments, as discussed by Rosen & Weber (1969) Biochemistry 8:3915-3920; Weber & Farris (1979) Biochemistry 18:3075-3078; Takashi et al. (1977) Proc Natl Acad Sci USA 74:2334-2338; Shi et al. (1994) Biochemistry 33:7536-7546. The following experimental protocol was utilized. GRP94 was warmed to 37° C. and either maintained at 37° C. or heat shocked for 15 minutes at 50° C., followed by incubation at 37° C. Subsequently, probe stocks were added to the GRP94 stocks and emission spectra recorded after 30 min at 37° C.
Under the experimental conditions used in this series of experiments, bis-ANS binding to GRP94 was near maximal at a 20-fold molar excess of GRP94 monomer over bis-ANS, with half maximal binding observed at 110 nM GRP94 (FIG. 2B).

GRP94 [2] = biological target: T1, GRP94; experiment: Conformational analysis by proteolysis (trypsin, SDS-PAGE); format: biochemical, porcine; conditions: 5 μM GRP94, 50 μM bis-ANS, 1 h 37° C.; 0.1% trypsin 30 min
Experimental: Conformational Analysis by Proteolysis. The conformational state of GRP94 was assessed by tryptic digestion of the protein and subsequent SDS-PAGE analysis. […] Samples were then combined with 0.1% trypsin and digested for 30 minutes at 37° C. An equal volume of SDS-PAGE sample buffer was added and the samples were snap frozen in liquid nitrogen. Immediately prior to gel analysis, samples were thawed and boiled for 5 minutes. […] Gels were fixed and stained with Coomassie Blue. For time course experiments, excess free bis-ANS was removed immediately prior to trypsinization by gel filtration on 0.5 ml G-25 SEPHADEX® spin columns.

HSP90 [3] = biological target: HSP90 (Homo sapiens, UniProt P07900); experiment: as above; format: biochemical
GRP94 [4] = biological target: T1, GRP94; experiment: Native blue electrophoresis (BN-PAGE) of oligomeric state; format: biochemical, porcine; conditions: ten-fold molar excess of bis-ANS
Experimental: Native Blue Electrophoresis. The oligomeric state of GRP94 was assayed by blue native polyacrylamide gel electrophoresis (BN-PAGE) as described by Schagger et al. (1994) Anal Biochem 217:220-230. GRP94 was either heat shocked or exposed to a 10-fold molar excess of bis-ANS for the indicated times. Samples were then dissolved in 15% glycerol and loaded onto 5-18% gradient gels with 0.02% Coomassie Brilliant Blue in the cathode buffer. Gels were run at 4° C., stained with Coomassie Blue, de-stained and dried.

GRP94 [5] = biological target: T1, GRP94; experiment: Far-UV circular dichroism; format: biochemical, porcine; conditions: 1 μM GRP94, 10 μM bis-ANS, 2 h
Experimental: Circular Dichroism Measurements. Far-UV CD spectrometry was performed on an AVIV Associates 62DS™ circular dichroism spectrometer (AVIV Associates of Lakewood, N.J.). Samples were analyzed in a 1 mm path length quartz cuvette at 37° C. GRP94 samples (1 μM) were prepared in standard phosphate buffered saline solution as buffer A produced unacceptable dynode voltages in the relevant region of the spectrum. GRP94 was incubated with 10 µM bis-ANS for 2 hours at 37° C. prior to obtaining spectra. Spectra were recorded from 300 to 195 nm. The α-helical content of GRP94 was calculated from the molar ellipticity at 222 nm. See Myers & Jakoby (1975) J Biol Chem 250:3785-3789.

GRP94 [6] = biological target: T1, GRP94; experiment: Citrate synthase thermal aggregation assay (chaperone activity); format: biochemical, porcine; conditions: 1 μM GRP94 preincubated 2 h with 10 μM bis-ANS; 0.15 μM citrate synthase, 43° C.
Experimental: Citrate Synthase Aggregation Assays. The effects of GRP94 on the thermal aggregation of citrate synthase were assayed by the methods described by Buchner et al. (1998) Methods Enzymol 290:323-338. Samples containing no protein, or GRP94 (1 μM), were incubated in 40 mM HEPES pH 7.5 for two hours at 37° C. with either 0.2% DMF or 10 µM bis-ANS. The samples were then warmed to 43° C. for five minutes and placed in a spectrofluorometer thermostatted at 43° C. Citrate synthase was then added to 0.15 μM final concentration and the thermal aggregation of the enzyme followed by light scattering. Excitation and emission wavelengths were both 500 nm with 2 nm slit width. The time course of citrate synthase aggregation was followed for 1000 seconds.
To determine if the bis-ANS-dependent conformational changes in GRP94 were of functional significance, the molecular chaperone activities of native, heat shocked and bis-ANS treated GRP94 were evaluated in a thermal aggregation assay, as described by Jakob et al. (1995) J Biol Chem 270:7288-7294 and Buchner et al. (1998) Methods Enzymol 290:323-338. […] Following experimental treatment of the GRP94, reactions were equilibrated at 43° C., citrate synthase then added and aggregation, as represented by light scattering, was measured.

GRP94 [7] = biological target: T1, GRP94; experiment: Identification of the bis-ANS binding site (photo-crosslinking, Edman sequencing); set-up: species or system porcine
Experimental: Identification of the bis-ANS binding site. […] Following photocrosslinking, GRP94-bis-ANS complexes were digested with trypsin for one hour at 37° C.
As described in Materials and Methods, GRP94 was combined with an excess of bis-ANS and photo-crosslinked on ice for 15 minutes. GRP94 was subsequently digested with trypsin, the fluorescent peptides purified by HPLC, and the sequence of the labeled peptides determined by Edman sequencing.

BiP = experiment: ATP binding assay ([32P]ATP, nitrocellulose filtration); set-up: species or system porcine; conditions: 50 μM [32P]ATP, 1 h on ice
Experimental: (§1) ATP Binding Assay. Six μg of GRP94, BiP, and Hsp90 was incubated with 50 μM […] (1000 μCi/μmol) (Amersham Pharmacia Biotech of Piscataway, N.J.) in buffer B on ice for 1 hour. Nitrocellulose filters (BA85) (Schleicher & Schuell of Keene, N.H.) were individually wet in buffer B before use, and bound versus free [^32P]-ATP was separated by vacuum filtration. Filters were washed with 3×2 mL of ice cold buffer B, placed in 5 mL of scintillation fluid, vortexed, and counted.

GRP94 [8] = biological target: T1, GRP94; experiment: as above; set-up: species or system porcine; conditions: 50 μM [32P]ATP, 1 h on ice
Experimental: as §1

GRP94 [9] = biological target: T1, GRP94; experiment: [3H]-NECA competitive displacement assay; format: binding, porcine
Experimental: Where indicated, binding reactions were performed in either buffer C (10 mM Tris, pH 7.5, 50 mM KCl, 5 mM MgCl2, 2 mM DTT, 0.01% NP-40, 20 mM Na2MoO4) or 50 mM Tris, pH 7.5, 10 mM Mg(OAc)2. […] Vacuum filtration was performed with an Amersham Pharmacia Biotech (Piscataway, N.J.) vacuum filtration manifold.
All binding reactions were performed in triplicate and corrected by subtraction of background values, determined in binding reactions lacking GRP94.

GRP94 [10] = biological target: T1, GRP94; experiment: Tryptophan fluorescence (tertiary conformational state); format: biochemical, porcine; conditions: 50 μM NECA, 50 μM geldanamycin, 2.5 mM ATP or 2.5 mM ADP; 1 h 37° C.
Experimental: Tryptophan Fluorescence. Tryptophan fluorescence measurements were conducted in a FLUOROMAX™ spectrofluorometer (Spex Industries, Inc. of Edison, N.J.) with the slit widths set to 1 nm for both excitation and emission. […] All spectra were corrected by subtraction of buffer or buffer plus ligand samples. GRP94 (50 μg/ml) was incubated in buffer A supplemented with 10 mM Mg(OAc)2 and the following concentrations of ligands for 1 hour at 37° C. […] Samples were then cooled to room temperature, transferred to a quartz cuvette, and the spectra collected.

HSP90 [11] = biological target: HSP90 (Saccharomyces cerevisiae, UniProt P02829); conditions: Prodromou et al. (1997); cited from earlier work
Sequence of HSP90 (Saccharomyces cerevisiae, UniProt P02829) (P02829 whole entry): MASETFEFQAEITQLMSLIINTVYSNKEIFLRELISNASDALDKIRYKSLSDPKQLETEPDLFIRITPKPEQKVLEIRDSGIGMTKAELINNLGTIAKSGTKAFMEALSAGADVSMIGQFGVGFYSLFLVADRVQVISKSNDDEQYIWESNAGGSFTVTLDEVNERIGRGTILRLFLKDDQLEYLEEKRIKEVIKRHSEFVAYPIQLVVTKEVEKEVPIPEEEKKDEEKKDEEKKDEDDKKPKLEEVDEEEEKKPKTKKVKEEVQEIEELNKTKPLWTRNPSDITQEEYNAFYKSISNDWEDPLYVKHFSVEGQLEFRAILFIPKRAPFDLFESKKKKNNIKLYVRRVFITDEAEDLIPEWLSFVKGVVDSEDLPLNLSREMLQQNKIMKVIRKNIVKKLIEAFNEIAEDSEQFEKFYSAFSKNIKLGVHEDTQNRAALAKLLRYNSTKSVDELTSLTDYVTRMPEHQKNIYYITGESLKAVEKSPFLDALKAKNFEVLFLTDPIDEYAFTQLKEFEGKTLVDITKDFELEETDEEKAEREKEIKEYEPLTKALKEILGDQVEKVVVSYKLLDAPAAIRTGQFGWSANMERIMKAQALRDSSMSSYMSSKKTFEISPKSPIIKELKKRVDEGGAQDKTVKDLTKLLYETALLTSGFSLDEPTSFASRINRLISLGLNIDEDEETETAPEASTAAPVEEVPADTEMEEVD

T1 sequence (Q29092 22-804): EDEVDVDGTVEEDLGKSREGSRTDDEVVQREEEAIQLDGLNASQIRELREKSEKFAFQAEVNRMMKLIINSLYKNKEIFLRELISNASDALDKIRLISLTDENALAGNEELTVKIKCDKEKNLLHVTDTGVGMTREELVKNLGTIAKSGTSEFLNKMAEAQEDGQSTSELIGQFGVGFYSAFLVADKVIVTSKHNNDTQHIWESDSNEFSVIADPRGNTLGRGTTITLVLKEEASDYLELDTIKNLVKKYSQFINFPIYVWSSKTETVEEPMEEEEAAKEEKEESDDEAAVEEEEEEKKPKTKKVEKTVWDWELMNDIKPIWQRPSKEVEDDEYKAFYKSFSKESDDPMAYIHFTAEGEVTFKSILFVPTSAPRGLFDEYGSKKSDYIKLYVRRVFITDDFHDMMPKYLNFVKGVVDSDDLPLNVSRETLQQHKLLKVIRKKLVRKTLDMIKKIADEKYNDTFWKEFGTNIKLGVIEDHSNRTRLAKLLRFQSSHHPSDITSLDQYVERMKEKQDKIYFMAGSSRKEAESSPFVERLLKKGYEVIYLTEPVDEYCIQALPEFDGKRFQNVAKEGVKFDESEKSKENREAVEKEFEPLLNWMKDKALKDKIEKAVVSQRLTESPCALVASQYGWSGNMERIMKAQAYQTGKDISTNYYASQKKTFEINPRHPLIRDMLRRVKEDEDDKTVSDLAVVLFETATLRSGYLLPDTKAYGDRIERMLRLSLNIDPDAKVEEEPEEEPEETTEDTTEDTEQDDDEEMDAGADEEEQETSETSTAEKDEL

| Molecule | agonist activity for GRP94 activation (GRP94 [1]) | fluorophore binding to native versus heat shocked GRP94 (fluorescence emission) (GRP94 [1]; 0.5 μM GRP94, 5 μM probe, 37° C.) | Kd (GRP94 [1]; fixed 50 nM bis-ANS, increasing GRP94, excitation 393 nm, emission 475 nm, read-out: half maximal binding of bis-ANS to heat shocked GRP94 (GRP94 concentration)) [µM] | molar excess of GRP94 monomer over bis-ANS at near maximal binding (GRP94 [1]; heat shocked GRP94) | trypsin proteolysis pattern of GRP94 (GRP94 [2]) | trypsin proteolysis pattern of HSP90 (HSP90 [3]) | quaternary structure (oligomerization) of GRP94 (GRP94 [4]) | secondary structure of GRP94 (CD spectra) (GRP94 [5]) | thermal aggregation of citrate synthase in presence of treated GRP94 (GRP94 [6]) | site of bis-ANS binding to GRP94 (labeled peptide) (GRP94 [7]) | ATP binding (BiP) | ATP binding (GRP94 [8]) | molar excess required for 50% inhibition of [3H]-NECA binding (GRP94 [9]; 20 nM [3H]-NECA) | effect of excess Mg2+ on binding to GRP94 (GRP94 [9]; 10 mM Mg(OAc)2 versus nominal magnesium) | nucleoside base specificity: binding to GRP94 by [3H]-NECA displacement (GRP94 [9]; competitors at 50 μM) | relative affinities for GRP94 in presence of Mg2+ (GRP94 [9]; excess Mg2+) | efficacy of competing NECA binding, ATP relative to ADP (GRP94 [9]; no excess Mg2+) | change of GRP94 tryptophan fluorescence (GRP94 [10]) | Kd (HSP90 [11]) [µM] |
| --- | --- | --- | --- | --- | --- | --- | --- | --- | --- | --- | --- | --- | --- | --- | --- | --- | --- | --- | --- |
| 4,4′-dianilino-1,1-binaphthyl-5,5-disulfonic acid [bis-ANS] | both an agonist for GRP94 activation as well as an indicator for the relative state of activation | a level of fluorophore binding similar to that seen with heat shocked GRP94 was observed | 0.11 | 20 -fold | substantially reduced recovery of the prominent proteolysis products | Essentially identical proteolysis patterns were observed following either heat shock or bis-ANS treatment of HSP90 | induces changes in the quaternary structure of GRP94 that mimic those seen upon heat shock | does not alter GRP94 secondary structure | no thermal aggregation of citrate synthase was detectable | mapped to residues 271-281 of the N-terminal domain of GRP94 |  |  |  |  |  |  |  |  |  |
| Nc1ncnc2c1ncn2[C@@H]1O[C@H](COP(=O)(O)OP(=O)(O)OP(=O)(O)O)[C@@H](O)[C@H]1O [ATP] |  |  |  |  |  |  |  |  |  |  | displayed the expected ATP binding activity | no ATP binding was observed to Hsp90 or GRP94 | ~1000 -fold molar excess | markedly stimulated the binding of ATP, ADP and AMP | GRP94 could bind both ATP and deoxyATP | nearly identical relative affinities | eight-fold higher efficacy than ADP | the tryptophan fluorescence was decreased | 132 |
